Test results published in PubChem BioAssay (NCI).
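The compound was tested at five concentrations on cells cultured in 96-well plates, with a 48-hour exposure period. GI50 is the concentration that inhibits growth by half. TGI: concentration producing complete growth inhibition.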

Legend:
Assay in all cases: NCI tumour cell line growth inhibition, 48 h
[1] = test system: NCI-H23 lung
[2] = test system: RXF 393 renal
[3] = test system: SF-539 CNS
[4] = test system: UO-31 renal
[5] = test system: TK-10 renal
[6] = test system: NCI-H460 lung
[7] = test system: OVCAR-4 ovarian
[8] = test system: SK-MEL-2 melanoma
[9] = test system: SR leukemia
[10] = test system: MALME-3M melanoma
[11] = test system: PC-3 prostate
[12] = test system: NCI/ADR-RES ovarian
[13] = test system: HCT-116 colon
[14] = test system: COLO 205 colon
[15] = test system: MOLT-4 leukemia
[16] = test system: ACHN renal
[17] = test system: NCI-H226 lung
[18] = test system: BT-549 breast
[19] = test system: K-562 leukemia
[20] = test system: OVCAR-5 ovarian
[21] = test system: SK-MEL-5 melanoma
[22] = test system: IGROV1 ovarian
[23] = test system: OVCAR-8 ovarian
[24] = test system: HCC-2998 colon
[25] = test system: HL-60(TB) leukemia
[26] = test system: SK-OV-3 ovarian
[27] = test system: HOP-92 NSCLC
[28] = test system: T-47D breast
[29] = test system: NCI-H522 lung
[30] = test system: CAKI-1 renal
[31] = test system: SF-295 CNS
[32] = test system: 786-0 renal
[33] = test system: SW-620 colon
[34] = test system: SK-MEL-28 melanoma
[35] = test system: OVCAR-3 ovarian
[36] = test system: KM12 colon
[37] = test system: LOX IMVI melanoma
[38] = test system: SNB-75 CNS
[39] = test system: SN12C renal
[40] = test system: UACC-62 melanoma
[41] = test system: MDA-MB-231 breast
[42] = test system: HT29 colon
[43] = test system: HOP-62 NSCLC
[44] = test system: RPMI-8226 leukemia
[45] = test system: U251 CNS
[46] = test system: CCRF-CEM leukemia
[47] = test system: MDA-MB-435
[48] = test system: DU-145 prostate
[49] = test system: MDA-MB-468 breast
[50] = test system: A498 renal
[51] = test system: A549 NSCLC
[52] = test system: SF-268 CNS
[53] = test system: HS 578T breast
[54] = test system: UACC-257 melanoma
[55] = test system: EKVX NSCLC
[56] = test system: HCT-15 colon
[57] = test system: MCF7 breast
[58] = test system: M14 melanoma
[59] = test system: SNB-19 CNS

CC(C)(C)OC(=O)N1C/C(=C\c2ccc(F)cc2)C(=O)/C(=C/c2ccc(F)cc2)C1
GI50 [1]: 2.17 µM | TGI [1]: 5.3 µM | GI50 [2]: 2.92 µM | TGI [2]: 8.29 µM | GI50 [3]: 1.94 µM | TGI [3]: 3.81 µM | GI50 [4]: 1.77 µM | TGI [4]: 3.94 µM | GI50 [5]: 4.01 µM | TGI [5]: 16.4 µM | GI50 [6]: 3.22 µM | TGI [6]: 10.7 µM | GI50 [7]: 3.22 µM | TGI [7]: 19.5 µM | GI50 [8]: 2.65 µM | TGI [8]: 9.67 µM | GI50 [9]: 0.335 µM | TGI [9]: > 100 µM | GI50 [10]: 2.24 µM | TGI [10]: 5.15 µM | GI50 [11]: 1.9 µM | TGI [11]: 6.41 µM | GI50 [12]: 1.89 µM | TGI [12]: 4.39 µM | GI50 [13]: 0.355 µM | TGI [13]: 1.28 µM | GI50 [14]: 3.49 µM | TGI [14]: 12.1 µM | GI50 [15]: 3.5 µM | TGI [15]: > 100 µM | GI50 [16]: 1.87 µM | TGI [16]: 3.68 µM | GI50 [17]: 3.64 µM | TGI [17]: 14.8 µM | GI50 [18]: 1.82 µM | TGI [18]: 3.73 µM | GI50 [19]: 0.643 µM | TGI [19]: > 100 µM | GI50 [20]: 2.18 µM | TGI [20]: 5.59 µM | GI50 [21]: 1.71 µM | TGI [21]: 3.51 µM | GI50 [22]: 2.14 µM | TGI [22]: 4.82 µM | GI50 [23]: 1.83 µM | TGI [23]: 3.78 µM | GI50 [24]: 1.84 µM | TGI [24]: 3.26 µM | GI50 [25]: 2.88 µM | TGI [25]: > 100 µM | GI50 [26]: 8.24 µM | TGI [26]: 21.9 µM | GI50 [27]: 2.51 µM | TGI [27]: 9.66 µM | GI50 [28]: 3.18 µM | TGI [28]: 15.9 µM | GI50 [29]: 1.63 µM | TGI [29]: 3.17 µM | GI50 [30]: 2.07 µM | TGI [30]: 5.5 µM | GI50 [31]: 1.97 µM | TGI [31]: 3.98 µM | GI50 [32]: 1.94 µM | TGI [32]: 3.98 µM | GI50 [33]: 0.455 µM | TGI [33]: 1.7 µM | GI50 [34]: 2.17 µM | TGI [34]: 5.51 µM | GI50 [35]: 1.99 µM | TGI [35]: 4.46 µM | GI50 [36]: 1.89 µM | TGI [36]: 4.23 µM | GI50 [37]: 1.28 µM | TGI [37]: 2.55 µM | GI50 [38]: 2.53 µM | TGI [38]: 19.9 µM | GI50 [39]: 1.82 µM | TGI [39]: 4.12 µM | GI50 [40]: 1.78 µM | TGI [40]: 4.17 µM | GI50 [41]: 2.16 µM | TGI [41]: 5.27 µM | GI50 [42]: 1.91 µM | TGI [42]: 3.72 µM | GI50 [43]: 13.1 µM | TGI [43]: 26.9 µM | GI50 [44]: 0.379 µM | TGI [44]: 2.64 µM | GI50 [45]: 1.44 µM | TGI [45]: 2.96 µM | GI50 [46]: 1.81 µM | TGI [46]: > 100 µM | GI50 [47]: 1.73 µM | TGI [47]: 3.32 µM | GI50 [48]: 3.5 µM | TGI [48]: 13.7 µM | GI50 [49]: 1.85 µM | TGI [49]: 3.75 µM | GI50 [50]: 17.1 µM | TGI [50]: 34.6 µM | GI50 [51]: 6.72 µM | TGI [51]: 29 µM | GI50 [52]: 3.02 µM | TGI [52]: 11.7 µM | GI50 [53]: 2.26 µM | TGI [53]: 7.68 µM | GI50 [54]: 2.06 µM | TGI [54]: 5.19 µM | GI50 [55]: 2.56 µM | TGI [55]: 6.61 µM | GI50 [56]: 1.5 µM | TGI [56]: 3.22 µM | GI50 [57]: 0.991 µM | TGI [57]: 2.46 µM | GI50 [58]: 2.02 µM | TGI [58]: 4.5 µM | GI50 [59]: 2.65 µM | TGI [59]: 8.72 µM
